Numbers after ± are expanded uncertainties.
Details: Liquid, Ebulliometric method (Recirculating still)

## CCCOCCO [2-propoxyethanol]
406.13 K
  vapor or sublimation pressure: 60 ± 1.4 kPa
406.15 K
  vapor or sublimation pressure: 60 ± 1.4 kPa
415.28 K
  vapor or sublimation pressure: 80 ± 2 kPa
415.3 K
  vapor or sublimation pressure: 80 ± 2 kPa
422.73 K
  vapor or sublimation pressure: 100 ± 2.5 kPa
422.75 K
  vapor or sublimation pressure: 100 ± 2.5 kPa

## CC(C)O [propan-2-ol]
342.87 K
  vapor or sublimation pressure: 60 ± 1.4 kPa
349.6 K
  vapor or sublimation pressure: 80 ± 1.8 kPa
355.06 K
  vapor or sublimation pressure: 100 ± 2.4 kPa

## CCC(C)O (configuration not stated) [butan-2-ol]
359.26 K
  vapor or sublimation pressure: 60 ± 1.4 kPa
366.45 K
  vapor or sublimation pressure: 80 ± 1.8 kPa
372.21 K
  vapor or sublimation pressure: 100 ± 2.4 kPa

Reference: the NIST ThermoML archive (doi:10.1021/je3002255)
